According to BindingDB's records for doi:10.1021/jm021012t (F. Hoffmann-La Roche, 2003):

Columns and labels:
[1] = target: T1, P-glycoprotein (ABCB1, MDR1) (Homo sapiens, UniProt P08183); assay: TP_TRANSPORTER: inhibition of Calcein-AM efflux in MDR1-expressing LLC-PK1 cells; conditions: probe calcein-AM
[2] = target: T1, P-glycoprotein (ABCB1, MDR1); assay: Inhibition of P-glycoprotein, human L-MDR1 expressed in LLC-PK1 epithelial cells using calcein-AM polarisation assay; conditions: LLC-PK1 epithelial cells expressing human MDR1 (L-MDR1), probe calcein-AM

T1 sequence (P08183 whole entry): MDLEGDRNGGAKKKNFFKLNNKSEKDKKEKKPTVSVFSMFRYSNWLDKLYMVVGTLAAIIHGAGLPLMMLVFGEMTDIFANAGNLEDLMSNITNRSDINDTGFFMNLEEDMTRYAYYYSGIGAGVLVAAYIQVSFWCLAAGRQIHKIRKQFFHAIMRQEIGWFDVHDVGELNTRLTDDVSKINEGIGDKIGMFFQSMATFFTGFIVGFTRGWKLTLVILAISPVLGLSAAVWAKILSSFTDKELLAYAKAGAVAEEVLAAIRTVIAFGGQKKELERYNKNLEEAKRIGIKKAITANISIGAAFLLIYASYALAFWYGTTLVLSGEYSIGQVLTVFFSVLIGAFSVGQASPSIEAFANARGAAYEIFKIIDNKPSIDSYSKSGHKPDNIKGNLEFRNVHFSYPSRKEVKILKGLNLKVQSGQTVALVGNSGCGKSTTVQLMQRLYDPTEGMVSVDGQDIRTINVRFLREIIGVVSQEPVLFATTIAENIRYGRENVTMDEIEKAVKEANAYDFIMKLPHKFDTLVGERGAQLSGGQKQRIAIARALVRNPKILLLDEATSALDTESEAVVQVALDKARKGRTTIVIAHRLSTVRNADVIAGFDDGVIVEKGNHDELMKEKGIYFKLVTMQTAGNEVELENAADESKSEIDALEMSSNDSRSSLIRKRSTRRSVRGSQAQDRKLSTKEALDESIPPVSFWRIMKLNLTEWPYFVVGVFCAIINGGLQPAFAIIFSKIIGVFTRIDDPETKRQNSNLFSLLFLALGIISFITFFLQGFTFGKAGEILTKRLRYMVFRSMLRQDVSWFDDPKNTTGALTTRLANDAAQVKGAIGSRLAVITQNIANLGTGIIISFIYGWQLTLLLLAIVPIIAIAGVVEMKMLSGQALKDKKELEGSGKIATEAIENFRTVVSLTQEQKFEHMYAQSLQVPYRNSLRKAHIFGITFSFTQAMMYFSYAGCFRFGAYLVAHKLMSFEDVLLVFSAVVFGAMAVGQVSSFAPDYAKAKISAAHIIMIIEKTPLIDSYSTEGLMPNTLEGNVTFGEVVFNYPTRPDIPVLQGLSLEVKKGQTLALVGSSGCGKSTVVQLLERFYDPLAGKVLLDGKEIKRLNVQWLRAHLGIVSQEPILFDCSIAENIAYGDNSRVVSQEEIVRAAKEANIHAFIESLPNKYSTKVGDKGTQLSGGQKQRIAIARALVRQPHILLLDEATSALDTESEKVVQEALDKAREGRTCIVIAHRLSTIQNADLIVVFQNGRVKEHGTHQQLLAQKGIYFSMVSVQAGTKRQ

IC50 [1]: 100 nM
IC50 [2]: 100 nM
Structure (SMILES): CC[C@H](C)[C@H]1O[C@]2(CC[C@@H]1C)C[C@@H]1C[C@@H](C/C=C(\C)[C@@H](O[C@H]3C[C@H](OC)[C@@H](O[C@H]4C[C@H](OC)[C@@H](O)[C@H](C)O4)[C@H](C)O3)[C@@H](C)/C=C/C=C3\CO[C@@H]4[C@H](O)C(C)=C[C@@H](C(=O)O1)[C@]34O)O2 [ABAMECTIN]
